Numbers after ± are expanded uncertainties.
Key:
[1] = molar heat capacity at saturation pressure; conditions: Liquid, Small (less than 1 g) adiabatic calorimetry
[2] = for vapor or sublimation pressure / mass density: Liquid; for mass density: Vibrating tube method
[3] = molar heat capacity at constant pressure; conditions: 101.33 kPa, Vacuum adiabatic calorimetry

C1=Cc2ccccc2CC1 [1,2-dihydronaphthalene]
Conditions | Triple point temperature [K] | mass density [kg/m3] | molar heat capacity [J/K/mol]
[1], 395.44 K | – | – | 250.46 ± 1.2
[1], 410.93 K | – | – | 257.02 ± 1.2
[1], 426.18 K | – | – | 263.43 ± 1.3
[1], 438.72 K | – | – | 268.69 ± 1.3
[2], 323.15 K | – | 971.8 ± 0.2 | –
[2], 348.15 K | – | 951.1 ± 0.2 | –
[2], 373.15 K | – | 930.3 ± 0.2 | –
[2], 398.15 K | – | 909.7 ± 0.2 | –
[2], 423.15 K | – | 889.1 ± 0.2 | –
[2], 448.15 K | – | 867.8 ± 0.2 | –
[2], 473.15 K | – | 846.1 ± 0.2 | –
[2], Crystal 1, Adiabatic calorimetry | 264.38 ± 0.05 | – | –

Conditions | molar heat capacity at constant pressure [J/K/mol] | vapor or sublimation pressure [kPa]
[2], 290 K, Inclined piston gauge | – | 0.0253 ± 0.001
[2], 299.97 K, Inclined piston gauge | – | 0.0534 ± 0.0011
[2], 310 K, Inclined piston gauge | – | 0.1078 ± 0.0011
[2], 319.99 K, Inclined piston gauge | – | 0.2047 ± 0.0012
[2], 329.98 K, Inclined piston gauge | – | 0.3717 ± 0.0014
[2], 339.99 K, Inclined piston gauge | – | 0.6472 ± 0.0018
[2], 349.98 K, Inclined piston gauge | – | 1.086 ± 0.0024
[2], 359.98 K, Inclined piston gauge | – | 1.76 ± 0.0031
[2], 362.71 K, Twin ebulliometer | – | 1.998 ± 0.01
[2], 364.97 K, Inclined piston gauge | – | 2.214 ± 0.0038
[2], 369.18 K, Twin ebulliometer | – | 2.671 ± 0.011
[2], 369.98 K, Inclined piston gauge | – | 2.766 ± 0.0044
[2], 378.73 K, Twin ebulliometer | – | 4.013 ± 0.011
[2], 385.76 K, Twin ebulliometer | – | 5.332 ± 0.011
[2], 396.37 K, Twin ebulliometer | – | 7.999 ± 0.012
[2], 404.33 K, Twin ebulliometer | – | 10.67 ± 0.013
[2], 410.79 K, Twin ebulliometer | – | 13.33 ± 0.014
[2], 417.49 K, Twin ebulliometer | – | 16.67 ± 0.015
[2], 423.06 K, Twin ebulliometer | – | 19.93 ± 0.017
[2], 430.39 K, Twin ebulliometer | – | 25.02 ± 0.019
[2], 437.8 K, Twin ebulliometer | – | 31.18 ± 0.022
[2], 445.24 K, Twin ebulliometer | – | 38.56 ± 0.025
[2], 452.74 K, Twin ebulliometer | – | 47.37 ± 0.029
[2], 460.3 K, Twin ebulliometer | – | 57.81 ± 0.033
[2], 467.91 K, Twin ebulliometer | – | 70.1 ± 0.038
[2], 475.59 K, Twin ebulliometer | – | 84.53 ± 0.044
[2], 483.32 K, Twin ebulliometer | – | 101.33 ± 0.05
[2], 491.1 K, Twin ebulliometer | – | 120.79 ± 0.06
[2], 498.94 K, Twin ebulliometer | – | 143.26 ± 0.07
[2], 506.84 K, Twin ebulliometer | – | 169.03 ± 0.07
[3], 5 K, Crystal 3 | 0.28 ± 0.02 | –
[3], 10 K, Crystal 3 | 2.69 ± 0.03 | –
[3], 20 K, Crystal 3 | 13.26 ± 0.083 | –
[3], 30 K, Crystal 3 | 24.12 ± 0.091 | –
[3], 40 K, Crystal 3 | 33.18 ± 0.11 | –
[3], 50 K, Crystal 3 | 40.87 ± 0.12 | –
[3], 60 K, Crystal 3 | 47.15 ± 0.13 | –
[3], 70 K, Crystal 3 | 52.76 ± 0.15 | –
[3], 80 K, Crystal 3 | 57.88 ± 0.16 | –
[3], 90 K, Crystal 3 | 62.79 ± 0.27 | –
[3], 100 K, Crystal 3 | 67.58 ± 0.27 | –
[3], 120 K, Crystal 3 | 77.47 ± 0.27 | –
[3], 140 K, Crystal 3 | 90.29 ± 0.29 | –
[3], 146 K, Crystal 2 | 95.59 ± 0.3 | –
[3], 146 K, Crystal 3 | 95.33 ± 0.3 | –
[3], 160 K, Crystal 2 | 104.39 ± 0.31 | –
[3], 180 K, Crystal 2 | 115.29 ± 0.32 | –
[3], 194.4 K, Crystal 1 | 126.5 ± 0.32 | –
[3], 194.4 K, Crystal 2 | 124.59 ± 0.32 | –
[3], 200 K, Crystal 1 | 129.36 ± 0.33 | –
[3], 220 K, Crystal 1 | 141.06 ± 0.34 | –
[3], 240 K, Crystal 1 | 155.01 ± 0.36 | –
[3], 250 K, Liquid | 191.22 ± 0.39 | –
[3], 260 K, Crystal 1 | 171.24 ± 0.37 | –
[3], 260 K, Liquid | 195.03 ± 0.4 | –
[3], 264.38 K, Crystal 1 | 175.09 ± 0.37 | –
[3], 264.38 K, Liquid | 196.72 ± 0.4 | –
[3], 280 K, Liquid | 202.59 ± 0.4 | –
[3], 298.15 K, Liquid | 209.64 ± 0.41 | –
[3], 300 K, Liquid | 210.37 ± 0.41 | –
[3], 320 K, Liquid | 218.52 ± 0.42 | –
[3], 340 K, Liquid | 226.88 ± 0.42 | –
[3], 360 K, Liquid | 235.35 ± 0.43 | –
[3], 380 K, Liquid | 243.89 ± 0.44 | –
[3], 400 K, Liquid | 252.39 ± 0.45 | –
[3], 420 K, Liquid | 260.86 ± 0.46 | –
[3], 440 K, Liquid | 269.35 ± 0.47 | –
[3], 460 K, Liquid | 277.87 ± 0.47 | –
[3], 480 K, Liquid | 286.36 ± 0.49 | –
[3], 500 K, Liquid | 294.85 ± 0.5 | –
